Results published in article PMC7600006, “Dissecting the Cytochrome P450 OleP Substrate Specificity: Evidence for a Preferential Substrate” (Biomolecules, 2020).

Columns and labels:
cytochrome P450 OleP [1] = target: T1, cytochrome P450 OleP (Streptomyces antibioticus, UniProt Q59819); experiment: UV-visible equilibrium titration (Type I Soret shift); crystal structure of the ternary complex with L-rhamnose ([…] Å); type: binding
T1 construct: wild type enzyme
T1 sequence (Q59819 1-407): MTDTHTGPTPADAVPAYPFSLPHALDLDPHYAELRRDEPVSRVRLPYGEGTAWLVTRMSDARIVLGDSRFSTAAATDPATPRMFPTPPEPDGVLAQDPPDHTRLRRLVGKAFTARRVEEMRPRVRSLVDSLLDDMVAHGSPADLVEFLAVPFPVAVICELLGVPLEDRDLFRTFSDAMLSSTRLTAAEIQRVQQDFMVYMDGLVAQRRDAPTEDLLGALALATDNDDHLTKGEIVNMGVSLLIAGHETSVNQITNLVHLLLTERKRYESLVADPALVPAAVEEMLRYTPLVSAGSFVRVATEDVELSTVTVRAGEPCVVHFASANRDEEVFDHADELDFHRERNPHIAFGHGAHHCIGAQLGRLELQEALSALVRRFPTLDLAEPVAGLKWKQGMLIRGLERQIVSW

cytochrome P450 OleP [2] = target: T1, cytochrome P450 OleP; experiment: UV-visible equilibrium titration (Type I Soret shift); crystal structures 6ZHZ, 6ZI2 and 6ZI7; type: binding

Kd (cytochrome P450 OleP [1]) [µM] | Kd (cytochrome P450 OleP [2]) [µM] | Structure (SMILES)
3.2 ± 0.1 |  | CC[C@H]1OC(=O)[C@H](C)[C@@H](O)[C@H](C)[C@@H](O)[C@@H](C)C[C@@H](C)C(=O)[C@H](C)[C@@H](O)[C@H]1C [6DEB, 6-deoxyerythronolide B]
 | 23 ± 2 | C[C@@H]1[C@@H](O)[C@@H](C)C[C@H](C)C(=O)[C@H](C)[C@@H](O)[C@@H](C)[C@@H](C)OC(=O)[C@H](C)[C@H]1O [DEO, 8.8a-deoxyoleandolide]
